According to PMC8102477 (2021):

Assays:
[1] = system: labelled 22AG (DNA, G4) AGGGTTAGGGTTAGGGTTAGGG; assay: FRET efficiency (FAM/TAMRA); details: no added Na+ or K+; 30 mM Tris-HCl pH 7.4, 25 °C, 1 bar; 2 µM DNA, 20 µM ThT; Erel rises on binding
[2] = system: 22AG (DNA, G4) AGGGTTAGGGTTAGGGTTAGGG; assay: fluorescence titration (ThT titrated with 22AG); details: 30 mM Tris-HCl pH 7.4, 25 °C, 1 bar, 2.14 µM ThT

For `Cc1ccc2c(c1)sc(-c1ccc(N(C)C)cc1)[n+]2C`, the binding [1] was “yes”, the Kb ([2]; 60 mM KCl, equivalent independent sites fit) was 3.51 ± 0.42 × 10^5 M^-1 and the Kb ([2]; 60 mM NaCl, equivalent independent sites fit) was 0.42 ± 0.04 × 10^5 M^-1. The Kb ([2]; no added Na+ or K+, 3 equivalent sites, free DNA mainly unfolded) was 0.87 ± 0.06 × 10^5 M^-1.
